The target of this test is human P2X3 receptor (Homo sapiens (Human), UniProt P56373). Description: P2X3 receptor inhibition, ATP-evoked Fluo-3 calcium fluorescence (FDSS 3000). Type of test: cell-based. To be noted: C6BU-1 cell transfected with human P2X3 receptor gene; ATP-evoked Fluo-3 fluorescence. A digest of the protocol: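 C6BU-1 cells stably transfected with human P2X3, loaded with 4 μM Fluo-3-AM for 1 h at 37 °C in HEPES buffer pH 7.5 with probenecid. Compound added 5 min before 40 nM ATP solution; fluorescence followed 3 min. IC50 from ratio of peak post-ATP to baseline fluorescence.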

As usually defined, the IC50 is the concentration that inhibits the measured activity by half.

human P2X3 receptor, sequence (P56373 whole entry): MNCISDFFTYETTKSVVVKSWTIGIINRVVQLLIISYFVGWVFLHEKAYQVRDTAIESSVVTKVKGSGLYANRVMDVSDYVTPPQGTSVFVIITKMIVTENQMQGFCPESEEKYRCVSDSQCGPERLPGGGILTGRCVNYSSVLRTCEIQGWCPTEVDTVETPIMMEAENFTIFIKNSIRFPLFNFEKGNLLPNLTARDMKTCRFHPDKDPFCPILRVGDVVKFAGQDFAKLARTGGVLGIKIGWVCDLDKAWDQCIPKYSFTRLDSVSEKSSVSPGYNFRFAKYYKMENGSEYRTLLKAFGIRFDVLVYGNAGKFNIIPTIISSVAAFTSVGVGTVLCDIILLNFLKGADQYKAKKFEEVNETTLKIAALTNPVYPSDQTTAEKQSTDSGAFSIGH

For the compound `Cc1nc(-c2ccc(N3C(=O)C(O)=C(C(=O)CC(C)C)C3c3ccccc3OCCO)cc2)no1` (stereo not shown) [Compound I-278], the IC50 was 366 nM.
Then `COCCN(C)C(=O)c1ncccc1C1C(C(=O)CC(C)C)=C(O)C(=O)N1c1ccc(-c2ccc(C)s2)cc1` (stereo not shown) [Compound I-582], with 359 nM; and `COc1ccccc1C1C(C(=O)C(C)C)=C(O)C(=O)N1c1ccc2sccc2c1` (stereo not shown) [Compound I-269], with 347 nM.
Then `COCc1ccccc1C1C(C(=O)C(C)C)=C(O)C(=O)N1c1ccc(C2CCCC2)cc1` (stereo not shown) [Compound I-528], with 70 nM.
Then `CNC(=O)CCc1ccccc1C1C(C(=O)C(C)C)=C(O)C(=O)N1c1ccc(-c2ccc(C)o2)cc1` (stereo not shown) [Compound I-535], with 49 nM; and `COc1ccccc1C1c2c(C(C)(C)C)n[nH]c2C(=O)N1c1ccc(-c2ccccc2)cc1` (stereo not shown) [II-208], with 112 nM; and `COCCOc1ncccc1C1c2c(C(C)C)n[nH]c2C(=O)N1c1ccc(-c2ccsc2)cc1` (stereo not shown) [II-278], with 13 nM.
Regarding `CC(C)(C)C(=O)C1=C(O)C(=O)N(c2ccc(-c3cccs3)cc2)C1c1ccccc1OCC(=O)O` (stereo not shown) [Compound I-119], the IC50 was 98 nM.
Next, `CCOCOc1ccccc1C1C(C(=O)C(C)C)=C(O)C(=O)N1c1ccc(-c2nc(C)no2)cc1` (stereo not shown) [Compound I-545]: 142 nM; `COc1ccccc1C1C(C(=O)C(C)(C)C)=C(O)C(=O)N1c1ccc(-c2csc(C)c2)cc1` (stereo not shown) [Compound I-197]: 36 nM; `COc1ncccc1C1C(C(=O)C(C)C)=C(O)C(=O)N1c1ccc(-c2ccc(C)s2)cc1` (stereo not shown) [Compound I-332]: 281 nM.
Then `CC(C)c1n[nH]c2c1C(c1ccccc1OCC(=O)NN)N(c1ccc(-c3ccsc3)cc1)C2=O` (stereo not shown) [II-051], with 5 nM; and `Cc1ccc(-c2ccc(N3C(=O)C(O)=C(C(=O)CC(C)C)C3c3cccnc3C(=O)N3CCCC3)cc2)s1` (stereo not shown) [Compound I-579], with 429 nM.
Next, `Cc1cc(-c2ccc(N3C(=O)C(O)=C(C(=O)CC(C)C)C3c3ccccc3C(=O)N(C)C)cc2)cs1` (stereo not shown) [Compound I-404]: 71 nM.
As for `CC(C)C(=O)C1=C(O)C(=O)N(c2ccc(-c3ccsc3)cc2)C1c1cccnc1OCCO` (stereo not shown) [Compound I-176], the IC50 was determined as 46 nM.
Next, `COCc1ccccc1C1C(C(=O)C(C)C)=C(O)C(=O)N1c1ccc(-c2csc(C)c2)cc1` (stereo not shown) [Compound I-265]: 28 nM; `COCCOc1ccccc1[C@H]1C(C(=O)C(C)C)=C(O)C(=O)N1c1ccc(-c2ccoc2)cc1` [Compound I-209]: 234 nM; `COc1ccccc1C1C(C(=O)CC(C)C)=C(O)C(=O)N1c1ccc(C2=NCCS2)cc1` (stereo not shown) [Compound I-412]: 310 nM.
Then `CC(C)(C)c1n[nH]c2c1C(c1ccccc1S(C)(=O)=O)N(c1ccc(-c3ccon3)cc1)C2=O` (stereo not shown) [II-112], with 389 nM; and `COc1ccccc1[C@@H]1C(C(=O)C(C)C)=C(O)C(=O)N1c1ccc(-c2ccoc2)cc1` [Compound I-202], with 40 nM; and `CC(C)C(=O)C1=C(O)C(=O)N(c2ccc(-c3ccsc3)cc2)C1c1ccccc1OCC(N)=O` (stereo not shown) [Compound I-189], with 14 nM.
As to `CC(C)(C)c1n[nH]c2c1C(c1ccccc1OCCO)N(c1ccc(-c3nccs3)cc1)C2=O` (stereo not shown) [II-014], the IC50 worked out at 17 nM.
Then `CNC(=O)C(C)(C)c1n[nH]c2c1C(c1ccccc1OC)N(c1ccc(-c3ccsc3)cc1)C2=O` (stereo not shown) [II-170], with 34 nM; and `COc1ccccc1C1C(C(=O)C(C)(C)CO)=C(O)C(=O)N1c1ccc(SC)cc1` (stereo not shown) [Compound I-068], with 305 nM.
Then `COc1ccccc1C1c2c(C(F)(F)F)n[nH]c2C(=O)N1c1ccc(-c2ccon2)cc1` (stereo not shown) [II-148], with 311 nM; and `CCOCOc1ccccc1C1C(C(=O)C(C)C)=C(O)C(=O)N1c1ccc(-c2noc(C)n2)cc1` (stereo not shown) [Compound I-542], with 58 nM; and `COc1ccccc1C1c2c(C(C)(C)CO)n[nH]c2C(=O)N1c1ccc(-c2ccco2)cc1` (stereo not shown) [II-215], with 15 nM.
Then `COc1ccccc1C1c2c(C(C)(C)C)n[nH]c2C(=O)N1c1ccc(Br)cn1` (stereo not shown) [II-246], with 871 nM; and `COc1ccc(C(=O)C2=C(O)C(=O)N(c3ccc(-c4nnc(C)o4)cc3)C2c2ccccc2OC)cc1` (stereo not shown) [Compound I-033], with 53 nM.
As to `COc1ncccc1C1c2c(C(C)(C)CO)n[nH]c2C(=O)N1c1ccc(-c2ccco2)cc1` (stereo not shown) [II-111], the 50% inhibitory concentration (IC50) amounted to 91 nM.
Then `COc1ccccc1[C@H]1C(C(=O)CC(C)C)=C(O)C(=O)N1c1ccc(-c2ccsc2)cc1` [Compound I-280], with 477 nM; and `CC(C)(C)C(=O)C1=C(O)C(=O)N(c2ccc(-c3nccs3)cc2)C1c1ccccc1OCCO` (stereo not shown) [Compound I-082], with 650 nM; and `CCN(C)C(=O)c1ccccc1C1C(C(=O)C(C)C)=C(O)C(=O)N1c1ccc(-c2ccc(C)o2)cc1` (stereo not shown) [Compound I-495], with 59 nM.
With `COCCOc1ccccc1C1c2c(C(C)(C)C)n[nH]c2C(=O)N1c1ccc(-c2ccsc2)cc1` (stereo not shown) [II-115], the IC50 was found to be 11 nM.
Next, `COc1ccccc1C1C(C(=O)C(C)C)=C(O)C(=O)N1c1ccc(-c2ccsc2)c(N(C)C)c1` (stereo not shown) [Compound I-242]: 357 nM; `COCCOc1ncccc1C1C(C(=O)C2CCCC2)=C(O)C(=O)N1c1ccc(-c2ccsc2)cc1` (stereo not shown) [Compound I-517]: 26 nM.
Next, `COc1ccccc1C1c2c(C(C)C)n[nH]c2C(=O)N1c1ccc(-c2ccsc2)c(F)c1` (stereo not shown) [II-238]: 19 nM; `COCCOc1ncccc1C1C(C(=O)CC(C)C)=C(O)C(=O)N1c1ccc(-c2ccc(C)o2)cc1` (stereo not shown) [Compound I-360]: 21 nM.
In the case of `COc1ccccc1C1C(C(=O)C(C)C)=C(O)C(=O)N1c1ccc(-c2ccsc2)c(CO)c1` (stereo not shown) [Compound I-241], the half-maximal inhibitory concentration (IC50) was determined as 822 nM.
Then `COCCCOc1ccccc1C1C(C(=O)C(C)C)=C(O)C(=O)N1c1ccc(-c2ccsc2)cc1` (stereo not shown) [Compound I-489], with 6 nM; and `Cc1noc(-c2ccc(N3C(=O)C(O)=C(C(=O)C(C)C)C3c3ccccc3COC(C)C)cc2)n1` (stereo not shown) [Compound I-552], with 186 nM; and `COCCOc1ccccc1C1C(C(=O)CC(C)C)=C(O)C(=O)N1c1ccc(-c2csc(C)n2)cc1` (stereo not shown) [Compound I-427], with 331 nM.
Next, `COc1ccc(C(=O)C2=C(O)C(=O)N(c3ccc(-c4cccn4C)cc3)C2C2CCCCC2)cc1` (stereo not shown) [Compound I-014]: 134 nM; `COc1ccc(F)cc1C1C(C(=O)C(C)(C)C)=C(O)C(=O)N1c1ccc(-c2ccon2)cc1` (stereo not shown) [Compound I-021]: 382 nM.
Next, `COc1ccccc1C1c2c(C(C)=O)n[nH]c2C(=O)N1c1ccc(-c2ccsc2)cc1` (stereo not shown) [II-188]: 156 nM.
Consider `Cc1ncccc1C1C(C(=O)C(C)(C)C)=C(O)C(=O)N1c1ccc(-c2ccco2)cc1` (stereo not shown) [Compound I-142], for which the IC50 worked out at 315 nM.
Next, `COCCOc1ncccc1C1C(C(=O)C(C)C)=C(O)C(=O)N1c1ccc(-c2ccoc2)cc1` (stereo not shown) [Compound I-234]: 56 nM; `COc1ccccc1C1c2c(C(C)(C)C)n[nH]c2C(=O)N1c1ccc(-c2ccsc2Cl)cc1` (stereo not shown) [II-272]: 392 nM.
Then `COC(=O)COc1ccccc1C1C(C(=O)C(C)(C)C)=C(O)C(=O)N1c1ccc(-c2cccs2)cc1` (stereo not shown) [Compound I-113], with 12 nM.

The values are drawn from patent US8575197B2, “Pyrolinone derivative and pharmaceutical composition comprising the same” (Shionogi & Co., Ltd., priority 2008, dated 2013).
